This note sets out measurements from US8883798B2, “Pyrimidine compounds inhibiting the formation of nitric oxide and prostaglandin E2, method of production thereof and use thereof” (Ustav Organicke Chemie a Biochemie Akademie Ved CR, V.V.I., priority 2011, dated 2014).

Series [1] concerns production of nitric oxide (NO). Description: Production of nitric oxide (NO) in cultures of mouse peritoneal cells stimulated with IFN-γ plus LPS (Griess reagent). Type of series: cell-based, mice. Particulars: substance 50 μmol·l^−1, IFN-g plus LPS, 24 h. The essentials:
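C57BL/6 mouse peritoneal cells (2×10^6/mL) stimulated with IFN-γ (5000 pg/mL) plus LPS (100 pg/mL), compounds at 50 μmol·l^−1. Nitrite measured by Griess reagent after 24 h, expressed as % of stimulated control (set 100%); IC50 is concentration reducing NO by 50%.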

Series [2] relates to production of prostaglandin E2 (PGE2). Description: Production of prostaglandin E2 (PGE2) in cultures of mouse peritoneal cells stimulated with LPS (ELISA kit). The following applies: for Production of prostaglandins IC50 (μmol · 1^−1) average value and range of values: Table 3B, 6 h; for Production of prostaglandins in % of the controls: Table 3A, substance 50 μmol·l^−1, 6 h. In kind it is cell-based, mice. The essentials:
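C57BL/6 mouse peritoneal cells (3×10^6/mL) stimulated with LPS (10 ng/mL). PGE2 measured by ELISA.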

The subject of another series is peritoneal cells of mice. Kind of series: Cell viability of mouse peritoneal cells (WST-1 kit). Particulars: substance 50 μmol·l^−1, 24 h; for Cell viabilities in % of the controls: Table 3B; for Cell viability in % of the controls: Table 3A. In kind it is cell-based. The essentials: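 C57BL/6 mouse peritoneal cells (1×10^6/mL) cultured 24 h with compounds at 50 μmol·l^−1. Viability read with WST-1 tetrazolium salt and expressed as percent of untreated control cells (100%).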

As for `CCCCc1c(Cl)nc(N)nc1-c1ccccc1` [Substance 41, 2-amino-5-butyl-4-chloro-6-phenylpyrimidine], the melting point lay in the range of 183 to 185 °C.
`CCCCc1c(-c2cccnc2)nc(N)nc1-c1cccnc1` [Substance 46, 2-amino-5-butyl-4,6-bis(pyridin-3-yl)pyrimidine] had a melting point of 173 to 174 °C.
For `CCCc1c(Cl)nc(/N=C/N(C)C)nc1Cl` [Substance 15, 4,6-dichloro-2-{[(dimethylamino)methylene]amino}-5-propylpyrimidine], the melting point lay in the range of 76 to 78 °C.
In turn, `C=CCc1c(Cl)nc(N)nc1Cl` [Substance 32, 5-allyl-2-amino-4,6-dichloropyrimidine] had a melting point of 175 to 177 °C.
Same read-out and setting: the result for `CN(C)/C=N/c1nc(Cl)c(Cc2ccccc2)c(Cl)n1` [Substance 23, 5-benzyl-4,6-dichloro-2-{[(dimethylamino)methylene]amino}pyrimidine] reads 63 to 65 °C.
The same measure, in the same setting: the result for `C#CCc1c(Cl)nc(N)nc1Cl` [Substance 33, 2-amino-4,6-dichloro-5-(prop-2-yn-1-yl)pyrimidine] reads 159 to 161 °C.
Still for that read-out and setting: the result for `CCc1c(Cl)nc(N)nc1Cl` [Substance 26, 2-amino-4,6-dichloro-5-ethylpyrimidine] reads 183 to 185 °C; that for `CCCc1c(Cl)nc(NC=O)nc1Cl` [Substance 50, 4,6-dichloro-2-formamido-5-propylpyrimidine], 92 to 94 °C; that for `CCCCc1c(Cl)nc(C)nc1Cl` [Substance 62, 5-butyl-4,6-dichloro-2-methylpyrimidine], 50 to 51 °C.
Take `C#CCc1c(Cl)nc(/N=C/N(C)C)nc1Cl` [Substance 18, 4,6-dichloro-2-{[(dimethylamino)methylene]amino}-5-(prop-2-yn-1-yl)pyrimidine]: the melting point lay in the range of 82 to 83 °C.
For `Nc1nc(Cl)c(-c2ccccc2)c(Cl)n1` [Substance 31, 2-amino-4,6-dichloro-5-phenylpyrimidine], the melting point fell in the range of 193 to 195 °C.
On the same count and under the same terms, the value for `CCCCc1c(Cl)nc(NC=O)nc1Cl` [Substance 51, 5-butyl-4,6-dichloro-2-formamidopyrimidine] was 82 to 83 °C; that for `CCCCc1c(Cl)nc(O)nc1Cl` [Substance 65, 5-butyl-4,6-dichloro-2-hydroxypyrimidine] was 73 to 75 °C; that for `C=CCc1c(Cl)nc(NC=O)nc1Cl` [Substance 57, 5-allyl-4,6-dichloro-2-formamidopyrimidine] was 85 to 86 °C.
The same measure, in the same setting: the result for `CC(C)c1c(Cl)nc(N)nc1Cl` [Substance 29, 2-amino-4,6-dichloro-5-isopropylpyrimidine] reads 175 to 176 °C.
As to `CCc1c(Cl)nc(NC=O)nc1Cl` [Substance 49, 4,6-dichloro-5-ethyl-2-formamidopyrimidine], the melting point fell in the range of 116 to 118 °C.
Still for that read-out and setting: the result for `CCCCc1c(Cl)nc(N(C)C)nc1Cl` [Substance 63, 5-butyl-4,6-dichloro-2-(dimethylamino)pyrimidine] reads 42 to 45 °C; that for `[2H]C([2H])([2H])C([2H])([2H])C([2H])([2H])C([2H])([2H])c1c(Cl)nc(NC=O)nc1Cl` [Substance 52, 5-(perdeutero-butyl)-4,6-dichloro-2-formamidopyrimidine], 83 to 84 °C; that for `CCCc1c(Cl)nc(N)nc1Cl` [Substance 27, 2-amino-4,6-dichloro-5-propylpyrimidine], 182 to 183 °C.
As for `C=CCc1c(Cl)nc(/N=C/N(C)C)nc1Cl` [Substance 17, 5-allyl-4,6-dichloro-2-{[(dimethylamino)methylene]amino}pyrimidine], the melting point is 80 to 81 °C.
Molecule `CCCCc1c(Cl)nc(N)nc1-c1cc2ccccc2o1` [Substance 44, 2-amino-4-(benzofuran-2-yl)-5-butyl-6-chloropyrimidine] registered a melting point of 195 to 196 °C.
With `CCCCc1c(Cl)nc(NCc2ccccc2)nc1Cl` [Substance 145], the “Production of nitric oxide in % of the controls” value in series [1] (Table 3B) was 93.01 ± 9.25; n = 6 % of the controls. Also, the “Production of prostaglandins IC50 (μmol · 1^−1) average value and range of values” (shortened to “Production of prostaglandins IC50”) in series [2] is given as 0.28 ± 0.23; n = 4 μmol · 1^−1. For the same molecule, the “Cell viabilities in % of the controls” value in the series on peritoneal cells of mice was 147.31 ± 4.88; n = 8 % of the controls.
For `CCCCc1c(-c2ccccc2)nc(N)nc1-c1cc2ccccc2o1` [Substance 116], in that order: 72.69 ± 10.36; n = 4 % of the controls, 49.17 ± 9.72; n = 4 μmol · 1^−1 and 95.24 ± 4.78; n = 8 % of the controls.
The corresponding values for `CCCCc1c(-c2ccc(F)cc2)nc(N)nc1-c1ccoc1` [Substance 103] are 66.44 ± 3.19; n = 6 % of the controls, 66.80 ± 8.64; n = 4 μmol · 1^−1 and 147.62 ± 3.25; n = 8 % of the controls.
In the case of `C=CCc1c(Cl)nc(NC=O)nc1Cl` [Substance 57], the “Production of nitric oxide in % of the controls” value in series [1] (Table 3A) is listed as 1.21 ± 0.28 % of the controls. Moreover, the “Production of prostaglandins in % of the controls” value in series [2] is 16.42 ± 0.64 % of the controls. The “Cell viability in % of the controls” value in the series with peritoneal cells of mice was 95.37 ± 15.40 % of the controls.
Regarding `CCCCc1c(-c2ccc(OC)cc2)nc(N)nc1-c1cc2ccccc2o1` [Substance 117], the “Production of nitric oxide in % of the controls” value in series [1] (Table 3B) was 89.91 ± 4.02; n = 6 % of the controls. Further, the “Production of prostaglandins IC50” value in series [2] is recorded as 64.65 ± 4.88; n = 2 μmol · 1^−1. Further, the “Cell viabilities in % of the controls” value with peritoneal cells of mice was 75.92 ± 9.72; n = 8 % of the controls.
The corresponding values for `CCCCc1c(Cl)nc(NC(C)=O)nc1Cl` [Substance 147] are 15.32 ± 2.33; n = 6 % of the controls, 80.60 ± 4.63; n = 2 μmol · 1^−1 and 113.28 ± 8.99; n = 8 % of the controls.
As for `CCCCc1c(-c2ccccc2)nc(N)nc1-c1ccccn1` [Substance 76], the “Production of nitric oxide in % of the controls” value in series [1] (Table 3B) was 45.05 ± 3.55; n = 4 % of the controls. In series [2], the “Production of prostaglandins IC50” value is on record as 42.94 ± 11.04; n = 6 μmol · 1^−1. In the series on peritoneal cells of mice, the “Cell viabilities in % of the controls” value was 97.97 ± 5.33; n = 8 % of the controls.
For `CCCCc1c(-c2cccnc2)nc(N)nc1-c1ccsc1` [Substance 110], in that order: 62.00 ± 2.93; n = 4 % of the controls, 64.72 ± 14.00; n = 2 μmol · 1^−1 and 90.73 ± 10.89; n = 4 % of the controls.
For `CCCCc1c(Cl)nc(N)nc1-c1ccsc1` [Substance 115], in that order: 37.43 ± 8.29; n = 6 % of the controls, 22.90 ± 11.94; n = 4 μmol · 1^−1 and 107.17 ± 2.03; n = 8 % of the controls.
As for `CC(C)c1c(Cl)nc(N=CN(C)C)nc1Cl` [Substance 16], the “Production of nitric oxide in % of the controls” value in series [1] (Table 3A) is 7.32 ± 2.68 % of the controls. Also, the “Production of prostaglandins in % of the controls” value in series [2] is 32.10 ± 2.31 % of the controls. Further, the “Cell viability in % of the controls” value with peritoneal cells of mice is reported as 134.83 ± 16.51 % of the controls.
`CCCCc1c(-c2cccnc2)nc(N)nc1-c1cccs1` [Substance 90]: in series [1] (Table 3B), the “Production of nitric oxide in % of the controls” value is on record as 50.11 ± 3.95; n = 4 % of the controls. In addition, in series [2], the “Production of prostaglandins IC50” value is 31.93 ± 15.87; n = 4 μmol · 1^−1. For the same molecule, the “Cell viabilities in % of the controls” value in the series on peritoneal cells of mice is 69.80 ± 6.79; n = 4 % of the controls.
As for `CCCCc1c(-c2ccc(F)cc2)nc(N)nc1-c1cccs1` [Substance 87], the “Production of nitric oxide in % of the controls” value in series [1] (Table 3B) is on record as 48.59 ± 10.92; n = 3 % of the controls. The “Production of prostaglandins IC50” value in series [2] is listed as 23.05 ± 11.33; n = 4 μmol · 1^−1. The “Cell viabilities in % of the controls” value in the series on peritoneal cells of mice is reported as 125.94 ± 4.49; n = 8 % of the controls.
The corresponding values for `CCCCc1c(-c2cccnc2)nc(N)nc1-c1cccc2ccccc12` [Substance 136] are 70.28 ± 3.71; n = 4 % of the controls, 72.55 ± 19.06; n = 2 μmol · 1^−1 and 111.00 ± 0.97; n = 4 % of the controls.
For `C#CCc1c(Cl)nc(N=CN(C)C)nc1Cl` [Substance 18], the “Production of nitric oxide in % of the controls” value in series [1] (Table 3A) is 0.90 ± 0.22 % of the controls. For the same molecule, the “Production of prostaglandins in % of the controls” value in series [2] was 78.55 ± 0.38 % of the controls. In addition, the “Cell viability in % of the controls” value with peritoneal cells of mice is on record as 67.89 ± 7.41 % of the controls.
For the molecule `CCCCc1c(-c2ccsc2)nc(N)nc1-c1cccs1` [Substance 111], in series [1] (Table 3B), the “Production of nitric oxide in % of the controls” value is given as 57.52 ± 1.81; n = 4 % of the controls. In series [2], the “Production of prostaglandins IC50” value is on record as 56.94 ± 12.51; n = 6 μmol · 1^−1. Besides, in the series with peritoneal cells of mice, the “Cell viabilities in % of the controls” value was 105.47 ± 5.51; n = 8 % of the controls.
The corresponding values for `CCCCc1c(-c2cc3ccccc3o2)nc(N)nc1-c1cccs1` [Substance 121] are 55.17 ± 7.88; n = 10 % of the controls, 62.54 ± 21.79; n = 6 μmol · 1^−1 and 90.22 ± 7.99; n = 12 % of the controls.
